# Literature values in patent US20090005367A1, “COMPOSITION AND METHOD FOR TREATING ALCOHOLISM AND OTHER SUBSTANCE ADDICTIONS” (priority 2006, published 2009).
# Where two headings read alike, the source gives them in different places.
# Tests used:
# [1] = oral / gastrointestinal tract
# [2] = not given; remark: listed apart in the source
# [3] = system: aldehyde dehydrogenase; conditions: blood, after alcohol ingestion
# [4] = not given; remark: listed apart in the source
SMILES,Elimination Half-Life (parent drug),also measured
O=C1CN=C(c2ccccc2Cl)c2cc([N+](=O)[O-])ccc2N1 [Clonazepam],18 to 50 h,Elimination Half-Life: 30 to 40 h; absorption [1]: rapidly and completely absorbed; time until full effects occur after ingestion [2]: 1 to 4 h; duration of action ([2]; in vivo): 30 to 40 h
Cc1ncc2n1-c1ccc(Cl)cc1C(c1ccccc1F)=NC2 [Midazolam],,Elimination Half-Life (h) (parent drug): 3 hours (1.8-6
O=C1CN=C(c2ccccn2)c2cc(Br)ccc2N1 [Bromazepam],10 to 20 h,
CC1=CC(=O)N2CC(=O)N(C)c3ccc(Cl)cc3C2(c2ccccc2)O1 (stereo not shown) [Ketazolam],2 h,
"CCN(CC)C(=S)SSC(=S)N(CC)CC [Disulfiram, bis(diethylthiocarbamoyl)disulfide]",,concentration of acetaldehyde compared with same amount of alcohol without disulfiram [3]: 5 to 10 times higher; time until full effects occur after ingestion [2]: 12 h; time effective following administration of the last dose ([2]; after last dose): approximately one to two
O=C1CN=C(c2ccccc2)c2cc([N+](=O)[O-])ccc2N1 [Nitrazepam],15 to 38 h,
Cc1nnc2n1-c1ccc(Cl)cc1C(c1ccccc1Cl)=NC2 [Triazolam],2 h,
CN1C(=O)CC(=O)N(c2ccccc2)c2cc(Cl)ccc21 [Clobazam],12 to 60 h,
CN1C(=O)C(O)N=C(c2ccccc2Cl)c2cc(Cl)ccc21 (stereo not shown) [Lormetazepam],10 to 12 h,
Clc1ccc2c(c1)C(c1ccccc1)=NCc1nncn1-2 [Estazolam],10 to 24 h,
CN1CCN(/C=C2\N=C3CN=C(c4ccccc4Cl)c4cc([N+](=O)[O-])ccc4N3C2=O)CC1 [Loprazolam],6 to 12 h,
O=C1Nc2ccc(Cl)cc2C(c2ccccc2Cl)=NC1O (stereo not shown) [Lorazepam],10 to 20 h,
CN1C(=O)CN=C(C2=CCCCC2)c2cc(Cl)ccc21 [Tetrazepam],3 to 26 h,
Fc1ccccc1C1=NCC(=S)N(CC(F)(F)F)c2ccc(Cl)cc21 [Quazepam],25 to 100 h,
CNC1=Nc2ccc(Cl)cc2C(c2ccccc2)=[N+]([O-])C1 [Chlordiazepoxide],5 to 30 h,
CN1[C@@H]2CC[C@H]1C[C@@H](OC(=O)C(CO)c1ccccc1)C2 (stereo partly shown) [Atropine],,excreted in the urine as unchanged drug [4]: 30-50%
Cc1nnc2n1-c1ccc(Cl)cc1C(c1ccccc1)=NC2 [Alprazolam],6 to 12 h,
CN1CCN=C(c2ccccc2)c2cc(Cl)ccc21 [Medazepam],36 to 200 h,
N#CCCN1C(=O)C(O)N=C(c2ccccc2F)c2cc(Cl)ccc21 (stereo not shown) [Cinolazepam],9 h,
